Experimental findings from article PMC6541264, “Molecular mechanisms involved in drug-induced liver injury caused by urate-lowering Chinese herbs: A network pharmacology study and biology experiments” (PLoS ONE, 2019) are described below.

What all share (format): cell-based, human
Data set [1] in a line: MTT assay, cell viability of L-02 cells. To be noted: human, L-02 (L02) normal hepatic cells, L-02, MTT, 24 h, read-out: cells viabilityrate. The procedure: (§1) The normal hepatic cell (L02) cell lines were obtained from the National Infrastructure of Cell Line Resources (Chinese Academy of Medical Sciences, Beijing, China), and maintained in Dulbecco’s modified Eagle’s medium (DMEM, 10-013-CVR) supplemented with 10% fetal bovine serum (FBS, Hyclone), 1% penicillin and streptomycin (PS, 100 IU/ml penicillin, 100 μg/ml streptomycin, Mediatech, 30-002-CI). All cells were incubated in a humidified atmosphere at 37°C with 5% CO2.
(§2) L-02 cells were trypsinized by 0.25% trypsin after reaching the confluence of 70–80% and plated in 96-well plates at the density of 1.6 × 10^3 […]. And L-02 cells were cultured for 24 hours in vitro before exposure to varying concentrations of different representative compounds with liver injury for further incubating in another 24 hours. Then, 20 μl of 0.25 mg/ml3-(4,5-dimethylthiazol-2-yl)-2,5-diphenyltetrazolium bromide (MTT)-tetrazolium salts (Sigma-Aldrich Corp., St. Louis, MO, USA) in PBS was added to each hole in 96-well plates. After 4 hours of incubation, the formazan crystals were dissolved by 150μl Dimethyl Sulphoxide (DMSO), and shocked to dissolve thoroughly, then the cell viability was measured by MTT method at 570 nm. All experiments were repeated in triplicate independently.
(Tetrazolium dyes change colour on reduction, which living cells bring about.)

Data set [2] relates to L-02 cells. Kind of data set: MTT assay, cell viability of L-02 cells. The procedure:
as §1, §2

Data set [3] deals with L-02 cells. In words: Biochemical indicators of hepatotoxicity (ALT, AST, LDH, ALP activity) of L-02 cells, without and with p38 inhibitor SB203580. The procedure: as §1
To determine how potential liver injury-compounds affected biochemical indicators of L-02 cells, we investigated the activities of AST, ALT, LDH and ALP in cell migration capacity under the different representative compounds conditions (representative compounds group), the inhibitor conditions (inhibitor group), and the negative control. For these experiments, three replicates were made for each concentration of the different representative compounds with liver injury, and each group was established three holes and cultured in 6 times repeatedly. […] Subsequently, the supernatant extraction of L02 cells was collected and centrifuged to detect the activities of AST, ALT, LDH, and ALP by chromatometry method.
To further and fully elucidating the mechanism of the liver injury caused by the representative compounds from urate-lowering Chinese herbs, we chose the p38α inhibitor, SB203580 to verify our findings. […] The specific composition information was shown in S2 Table. […] The Specific specific composition information is was shown in S4 Table.

The subject of the next data set is p38α. Kind of data set: Western blot, expression of p-p38α/p38α in L-02 cells, without and with inhibitor SB203580. The conditions noted are these: for ratios of p-p38α/p38α expression compared with the blank groups, in words: L-02, 10μmol/L diosgein, 2000μmol/L baicalin, 60μmol/L terandrine, 6μmol/L evodiamine. An excerpt:
After the examination of biochemical indicators for hepatotoxicity in the cell, the expression of crucial liver injury protein in L02 cell lines among different groups was compared by Western blot analysis. Briefly, the proteins from different groups were harvested and lysed using lysis buffer (Sigma-Aldrich) containing a proteinase inhibitor cocktail (Sigma-Aldrich), the equal amounts of protein were separated by electrophoresis on a pre-cast 10% SDS-polyacrylamide gel (Bio-Rad, Hercules, CA) and transferred to polyvinylidene difluoride membranes (Millipore, Bedford, MA). Next, the membrane was blocked in TBST-T containing 5% skim milk for 2 h at room temperature and probed with anti-beta-catenin, and incubated overnight with the indicated primary antibody, followed by incubation with the secondary antibodies at room temperature for another 2 h. Finally, all the immune blots were visualized by enhanced chemiluminescence (Pierce Biotechnology, Inc., Rockford, IL, USA) and western blots were performed at least three times.
According to the results of network pharmacology, we examined the expression levels of p38α. […] The Specific specific composition information is was shown in S3 Table. […] However, the mechanism of saikosaponin D causing liver injury still remained unclear.
To further and fully elucidating the mechanism of the liver injury caused by the representative compounds from urate-lowering Chinese herbs, we chose the p38α inhibitor, SB203580 to verify our findings. Seemingly, the ALT, AST, ALP, and LDH activities of each group decreased to varying degrees under the influence of inhibitor. The specific composition information was shown in S2 Table. […] The Specific specific composition information is was shown in S4 Table.
On the technique in general: Immunoblotting shows a protein as a band on a membrane.

Setting [4] is: S2 Table, L-02, 1000μmol/L+inhibitor (SB203580).
Setting [5] is: S2 Table, L-02, 1000μmol/L, no inhibitor.
[6] abbreviates: S2 Table, L-02, 2000μmol/L+inhibitor (SB203580).
Where [7] appears, read: S2 Table, L-02, 2000μmol/L, no inhibitor.
Where [8] appears, read: Table 5, L-02 supernatant, 24 h, 1000μmol/L.
Setting [9] is: Table 5, L-02 supernatant, 24 h, 2000μmol/L.
Setting [10] is: S2 Table, L-02, 5μmol/L+inhibitor (SB203580).
The mark [11] stands for this setting: S2 Table, L-02, 5μmol/L, no inhibitor.
[12] abbreviates: S2 Table, L-02, 10μmol/L+inhibitor (SB203580).
Where [13] appears, read: S2 Table, L-02, 10μmol/L, no inhibitor.
Setting [14] is: Table 5, L-02 supernatant, 24 h, 5μmol/L.
Setting [15] is: Table 5, L-02 supernatant, 24 h, 10μmol/L.
Where [16] appears, read: Table 5, L-02 supernatant, 24 h, 15μmol/L.

Consider `O=C(O)[C@H]1O[C@@H](Oc2cc3oc(-c4ccccc4)cc(=O)c3c(O)c2O)[C@H](O)[C@@H](O)[C@@H]1O` [Baicalin], for which the viability at 24 h, 1000 μmol/L in data set [1] (1000 μmol/L) stood at 154 ± 21.1%. Moreover, the viability at 24 h, 2000 μmol/L in data set [1] (2000 μmol/L) is 98.6 ± 16.5%. In the data set with L-02 cells [2] (dose of 2000μmol/L), the “effect on L-02 (MTT), in words” value is given as “trend of proliferative effects”. Besides, the ALP in the data set with L-02 cells [3] (setting [4]) worked out at 0.70± 0.05 King's unit /100ml; in the data set with L-02 cells [3] (setting [5]), 0.86± 0.06 King's unit /100ml; with L-02 cells [3] (setting [6]), 0.85± 0.06 King's unit /100ml; in the data set with L-02 cells [3] (setting [7]), 0.92± 0.13 King's unit /100ml; in the data set with L-02 cells [3] (setting [8]), 2.03±0.44 King's unit /100ml; with L-02 cells [3] (setting [9]), 1.94±0.21 King's unit /100ml. For the same molecule, the ALT with L-02 cells [3] (setting [4]) amounted to 1.88± 0.20 U/L; in the data set on L-02 cells [3] (setting [5]), 2.24± 0.30 U/L; in the data set with L-02 cells [3] (setting [6]), 2.27± 0.32 U/L; in the data set with L-02 cells [3] (setting [7]), 2.01± 0.20 U/L; in the data set on L-02 cells [3] (setting [8]), 4.45±1.09 U/L; with L-02 cells [3] (setting [9]), 4.48±0.13 U/L. Further, the AST is 4.12± 0.26 U/L in the data set with L-02 cells [3] (setting [4]); 4.45± 1.09 U/L in the data set on L-02 cells [3] (setting [5]); 4.38± 0.84 U/L in the data set with L-02 cells [3] (setting [6]); 4.48± 0.13 U/L in the data set on L-02 cells [3] (setting [7]); 690.76±33.24 U/L in the data set with L-02 cells [3] (setting [8]); 824.64±39.22 U/L in the data set on L-02 cells [3] (setting [9]). Moreover, the LDH in the data set with L-02 cells [3] (setting [4]) is recorded as 778.83± 14.65 U/L; in the data set on L-02 cells [3] (setting [5]), 699.84± 33.81 U/L; in the data set on L-02 cells [3] (setting [6]) it was 981.04± 3.87 U/L; in the data set with L-02 cells [3] (setting [7]), 840.44± 32.45 U/L; with L-02 cells [3] (setting [8]) it was 0.81±0.10 U/L; in the data set with L-02 cells [3] (setting [9]) it was 0.84±0.18 U/L. Moreover, the “ratios of p-p38α/p38α expression compared with the blank groups, in words” value in the data set with p38α is on record as “increased”. For the same molecule, the p-p38α/p38α with p38α (S3 Table, L-02, 24 hours of incubation, 1000μmol/L) came to 1.24±0.29; in the data set on p38α (S3 Table, L-02, 24 hours of incubation, 2000μmol/L), 2.06±0.66; with p38α (S4 Table, L-02, 24 hours, 1000μmol/L+inhibitor (SB203580)) it was 0.76±0.15; in the data set with p38α (S4 Table, L-02, 24 hours, 1000μmol/L, no inhibitor), 1.25±0.24; with p38α (S4 Table, L-02, 24 hours, 2000μmol/L+inhibitor (SB203580)), 0.26±0.03; with p38α (S4 Table, L-02, 24 hours, 2000μmol/L, no inhibitor), 1.08±0.6.
On to `O=c1c2ccccc2nc2n1CCc1c-2[nH]c2ccccc12` [Rutaecarpine], for which, in data set [1] (5 μmol/L), the viability at 24 h, 5 μmol/L is 92.7 ± 3.74%. Also, in data set [1] (10 μmol/L), the viability at 24 h, 10 μmol/L was 81.3 ± 6.29%. Besides, the viability at 24 h, 15 μmol/L in data set [1] (15 μmol/L) stood at 80.5 ± 3.9%. The “cell viability of L-02 (MTT), in words” value with L-02 cells [2] (dose of 5μmol/L) was “good potency inhibitor against the cell viability”. In addition, the ALP in the data set with L-02 cells [3] (setting [10]) is given as 1.13± 0.12 King's unit /100ml; in the data set with L-02 cells [3] (setting [11]), 1.63± 0.03 King's unit /100ml; in the data set with L-02 cells [3] (setting [12]) it was 1.39± 0.28 King's unit /100ml; in the data set on L-02 cells [3] (setting [13]), 1.07± 0.14 King's unit /100ml; with L-02 cells [3] (setting [14]), 5.77±0.54 King's unit /100ml; in the data set on L-02 cells [3] (setting [15]) it was 5.67±0.12 King's unit /100ml. In the data set with L-02 cells [3] (setting [16]), this molecule came in with an ALP of 5.54±0.57 King's unit /100ml. Besides, the ALT turned out to be 5.01± 0.13 U/L in the data set on L-02 cells [3] (setting [10]); 6.00± 0.43 U/L in the data set with L-02 cells [3] (setting [11]); 5.63± 0.09 U/L in the data set with L-02 cells [3] (setting [12]); 5.67± 0.12 U/L with L-02 cells [3] (setting [13]); 9.90±0.99 U/L in the data set on L-02 cells [3] (setting [14]); 8.81±1.85 U/L in the data set with L-02 cells [3] (setting [15]). The molecule further showed an ALT in the data set with L-02 cells [3] (setting [16]) of 9.33±1.85 U/L. Further, the AST in the data set on L-02 cells [3] (setting [10]) is on record as 9.25± 1.09 U/L; with L-02 cells [3] (setting [11]) it was 10.33± 0.74 U/L; with L-02 cells [3] (setting [12]), 10.52± 0.97 U/L; in the data set on L-02 cells [3] (setting [13]), 9.81± 0.74 U/L; in the data set with L-02 cells [3] (setting [14]), 1075.18±91.40 U/L; with L-02 cells [3] (setting [15]) it was 1127.68±56.72 U/L. The molecule also showed an AST in the data set on L-02 cells [3] (setting [16]) of 1000.00±61.27 U/L. In addition, the LDH in the data set with L-02 cells [3] (setting [10]) amounted to 1193.32± 3.90 U/L; in the data set with L-02 cells [3] (setting [11]), 1105.81± 85.95 U/L; in the data set on L-02 cells [3] (setting [12]), 1217.18± 41.25 U/L; with L-02 cells [3] (setting [13]), 1155.13± 35.72 U/L; in the data set on L-02 cells [3] (setting [14]), 1.62±0.04 U/L; in the data set with L-02 cells [3] (setting [15]), 1.54±0.36 U/L. Besides, in the data set on L-02 cells [3] (setting [16]), the LDH was found to be 1.71±0.16 U/L.
Consider `C[S+]([O-])c1ccc(-c2nc(-c3ccncc3)c(-c3ccc(F)cc3)[nH]2)cc1` (centres unmarked) [SB203580, reference compound], for which, in the data set with L-02 cells [3] (SB203580 at the dose of 20μmol/L added to components), the “effect on component-induced cell damage of L-02 cells, in words” value is “attenuate the component-induced cell damage”.
As for Evodiamine, the “ratios of p-p38α/p38α expression compared with the blank groups, in words” value in the data set with p38α is recorded as “increased”. Further, the p-p38α/p38α in the data set with p38α (S3 Table, L-02, 24 hours of incubation, 5μmol/L) is listed as 1.13±0.33; in the data set on p38α (S3 Table, L-02, 24 hours of incubation, 6μmol/L) it was 1.39±0.34; in the data set with p38α (S3 Table, L-02, 24 hours of incubation, 7μmol/L) it was 1.03±0.48; in the data set on p38α (S4 Table, L-02, 24 hours, 5μmol/L+inhibitor (SB203580)), 0.82±0.02; in the data set on p38α (S4 Table, L-02, 24 hours, 5μmol/L, no inhibitor), 1.74±0.42; in the data set with p38α (S4 Table, L-02, 24 hours, 10μmol/L+inhibitor (SB203580)), 0.47±0.03. Also, the p-p38α/p38α was found to be 1.45±0.29 with p38α (S4 Table, L-02, 24 hours, 10μmol/L, no inhibitor); 0.91±0.22 in the data set on p38α (S4 Table, L-02, 24 hours, 15μmol/L+inhibitor (SB203580)); 1.39±0.77 in the data set on p38α (S4 Table, L-02, 24 hours, 15μmol/L, no inhibitor).
